# Measured values from publication PMC4180444 (Toxicology letters, 2014).
# Where “and” joins values, the source holds several entries; their conditions need not be identical. Equal entries are not always repeated. Entries after “also recorded” stand apart in the source; their conditions may differ. Where two headings read alike, the source gives them in different places.
# Experiments:
# human PPARγ = molecular target: T1, human PPARγ (Homo sapiens, UniProt P37231); format: cell-based; details: for PPARγ agonist activity (result in words): 24 hr exposure, vs vehicle control; for fold increase in PPARγ activity relative to vehicle control: 10-fold concentration intervals (Fig. 4)
# T1 sequence (P37231 1-505): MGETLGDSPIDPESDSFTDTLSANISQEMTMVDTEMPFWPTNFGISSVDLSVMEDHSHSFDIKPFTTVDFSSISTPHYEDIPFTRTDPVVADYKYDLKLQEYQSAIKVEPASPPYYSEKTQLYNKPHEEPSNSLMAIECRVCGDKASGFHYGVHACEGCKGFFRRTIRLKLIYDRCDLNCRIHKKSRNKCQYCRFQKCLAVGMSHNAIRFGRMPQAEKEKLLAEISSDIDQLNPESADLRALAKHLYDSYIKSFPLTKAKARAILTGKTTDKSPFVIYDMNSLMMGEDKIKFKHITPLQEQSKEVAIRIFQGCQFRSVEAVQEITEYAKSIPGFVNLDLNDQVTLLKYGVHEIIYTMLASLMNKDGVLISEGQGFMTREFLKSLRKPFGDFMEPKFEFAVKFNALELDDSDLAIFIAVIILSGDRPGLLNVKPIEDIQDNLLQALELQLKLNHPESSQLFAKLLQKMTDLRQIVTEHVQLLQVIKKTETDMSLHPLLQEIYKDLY
# CHO PPARγ reporter cells = format: cell-based, Chinese Hamster; details: 0.1 μM to 100 μM; 24 hr
# D283 Med cells = test: MTS viability assay; format: cell-based, human; details: 1 μM to 30 μM, 48 hour exposure (Fig. 6 legend)
# [1] = test system: caspase 3 activity in D283 Med cells; test: caspase 3 activity assay in cell lysates; format: cell-based, human; details: 6 hour exposure
compound,measurement,setting,value
"CCCCC(CC)COC(=O)c1cc(Br)c(Br)c(Br)c1Br (stereo not shown) [TBB, 2-ethylhexyl-2,3,4,5-tetrabromobenzoate]",PPARγ agonist activity (result in words),human PPARγ,No statistical differences; also recorded: No activity
"C=[CH][Sn]([CH2]CCC)([CH2]CCC)[CH2]CCC [TBVT, Tributyl(vinyl)tin, reference compound]",Concentration of maximal PPARγ activity observed,human PPARγ,10 µM
same,fold increase in PPARγ activity relative to vehicle control,human PPARγ; 10 μM (10^-5 M),3 fold and 3.3 ± 0.3 fold
"O=P(Oc1ccccc1)(Oc1ccccc1)Oc1ccccc1 [TPP, triphenyl phosphate]",Concentration of maximal PPARγ activity observed,human PPARγ,30 µM
same,fold increase in PPARγ activity relative to vehicle control,human PPARγ; 10 μM (10^-5 M),6.23 ± 0.63 fold and 6.2 fold
same,fold increase in PPARγ activity,"human PPARγ; 30 μM, focused analysis with half-log (3-fold) increments (Fig. 5)",20 ± 2.2 fold
same,fold increase in PPARγ activity relative to vehicle control,human PPARγ; 100 μM,2.84 ± 0.34 fold
same,PPARγ agonist activity (result in words),human PPARγ,Significant agonist activity
same,"relative maximal PPARγ activity, percent of TPT Cl",human PPARγ; TPP at 30 μM,57% ± 6%
same,effect on cell viability,CHO PPARγ reporter cells,dose dependent decreases in cell viability
same,effect on viability,D283 Med cells,decreased viability
same,concentration above which caspase activity significantly increased,[1],above 1 μM
same,effect on caspase 3 activity,[1],significant dose dependent increases in caspase 3 activities
"[Cl][Sn]([c]1ccccc1)([c]1ccccc1)[c]1ccccc1 [TPT Cl, triphenyltin chloride, reference compound]",Concentration of maximal PPARγ activity observed,human PPARγ,0.1 µM
same,concentration above which PPARγ activity decreased,human PPARγ; non-monotonic concentration response,> 0.1 µM
same,AC50,"human PPARγ; read-out: AC50, concentration eliciting half-maximal response, 4-parameter variable slope model",3 nM and 3.3 nM
